In patent US20060287320A1, “Preparation of thioarabinofuranosyl compounds and use thereof” (Southern Research Institute, priority 1998, published 2006):

Columns and labels:
CAK1-1 Renal = experiment: In vitro IC50, 72 hour exposure, Natural Red assay; type: cell-based; details: read-out: IC50 Molar Values
Description: (§1) EXAMPLE 3 The following in vitro tests were carried out.
(§2) The above tests were carried out with a 72 hour exposure to the compound using Natural Red assay for all cell lines except SK-MEL 28 which was done with SRB assay.

DLD-1 Colon = experiment: In vitro IC50, 72 hour exposure, Natural Red assay; type: cell-based; details: Homo sapiens, read-out: IC50 Molar Values
Description: as §1, §2

LOX IMV1 Melanoma = experiment: In vitro IC50, 72 hour exposure, Natural Red assay; type: cell-based; details: read-out: IC50 Molar Values
Description: as §1, §2

NC1-H23 Lung = experiment: In vitro IC50, 72 hour exposure, Natural Red assay; type: cell-based; details: read-out: IC50 Molar Values
Description: as §1, §2

PC-3 Prostate = experiment: In vitro IC50, 72 hour exposure, Natural Red assay; type: cell-based; details: read-out: IC50 Molar Values
Description: as §1, §2

SNB-7 (CNS) = experiment: In vitro IC50, 72 hour exposure, Natural Red assay; type: cell-based; details: Homo sapiens, read-out: IC50 Molar Values
Description: as §1, §2

ZR-75-1 Mammary = experiment: In vitro IC50, 72 hour exposure, Natural Red assay; type: cell-based; details: Homo sapiens, read-out: IC50 Molar Values
Description: as §1, §2

SK-MEL 28 Melanoma = experiment: In vitro IC50, 72 hour exposure, SRB assay; type: cell-based; details: Homo sapiens, read-out: IC50 Molar Values
Description: as §1, §2

SC Colon 36 Tumor = experiment: Response of SC Colon 36 Tumor to Treatment; type: in vivo; details: 8 Mg/Kg IP, Q 4H × 3 day 9-17
Description: (§3) The following in vivo tests were carried out to illustrate the effectiveness of the compounds of the present invention.

SC CAKI-1 Renal Tumor = experiment: Response of SC CAKI-1 Renal Tumor to Treatment; type: in vivo; details: Q 4H × 3 day 7-15
Description: as §3

SC HCT-116 Colon Tumor = experiment: Response of SC HCT-116 Colon Tumor to Treatment; type: in vivo; details: Q 4H × 3 day 6-14
Description: as §3

CEM cells (wild-type) [1] = experiment: Metabolism of dCyd and analogs in wild-type CEM cells; type: cell-based; details: WT CEM cells; 100 nM; incubation time 1 hour
Description: (§4) The radioactivity in the 5′-triphosphate peak and the incorporation of radioactivity in the acid-insoluble fraction (DNA) was determined.

araC-resistant CEM cells [2] = experiment: Metabolism of dCyd and analogs in araC-resistant CEM cells; type: cell-based; details: 100 nM, incubation time 1 hour
Description: as §4

[3] = Phosphorylation in cell-free CEM extracts, wild-type; type: biochemical; details: wild-type CEM cell extract; 1 μm substrate
Description: (§5) The number in parentheses is the number of experiments performed. […] At various times after the initiation of the experiment, an aliquot of each reaction volume was removed and placed on DE-81 filters. The filters were washed with 1 mM ammonium formate and ethanol, and the amount of radioactivity on each filter was determined. […] This assay was verified by HPLC.

[4] = Phosphorylation in cell-free CEM extracts, araC-resistant; type: biochemical
Description: as §5

[5] = target: T1, dCyd Kinase Activity Isolated from Molt-4 Cells (Homo sapiens, UniProt P27707); experiment: Substrate characteristics with dCyd kinase activity isolated from Molt-4 cells; type: biochemical; details: dCyd kinase activity from Molt-4 cells
T1 construct: endogenous in cells; host or cells: Molt-4 cells (enzyme purified from the cells)
T1 sequence (P27707 whole entry): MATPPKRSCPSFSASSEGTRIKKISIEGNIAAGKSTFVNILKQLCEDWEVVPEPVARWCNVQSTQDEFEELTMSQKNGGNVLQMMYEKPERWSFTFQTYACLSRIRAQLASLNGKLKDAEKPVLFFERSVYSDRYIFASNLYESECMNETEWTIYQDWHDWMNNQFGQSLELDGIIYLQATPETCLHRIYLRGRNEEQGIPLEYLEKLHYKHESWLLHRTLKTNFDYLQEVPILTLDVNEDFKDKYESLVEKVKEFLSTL
Description: Each assay was done in duplicate and the kinetic constants were determined from linear double-reciprocal plots of 1/velocity versus 1/concentration of the substrate. The best line was determined by linear regression from at least 5 datum points, and the Km and Vmax were determined from the x and y intercepts.

CEM cells [6] = experiment: Complete metabolism of dCyd, T-dCyd, araC and T-araC in CEM cells; type: cell-based; details: 100 nM, incubation 24 hours
Description: The complete metabolism of each compound was determined: The medium was analyzed for the original compound, its deaminated form using reverse phase HPLC, and H20; the acid-soluble extract was analyzed by SAX HPLC for phosphorylated metabolites; and the incorporation of radioactivity into acid-precipitable material (DNA) was determined.

CEM cells [7] = experiment: Effect of F-dUrd on metabolism (deamination) in CEM cells; type: cell-based; details: 100 nM, incubation time 24 hours
Description: The complete metabolism of each compound was determined as described in the legend to Table 12, and the percent of deaminated metabolites for each compound was determined.

[8] = tested on: DNA synthesis in CEM cells; experiment: Effect on DNA synthesis ([3H]dThd incorporation) in CEM cells; type: cell-based; details: Homo sapiens, CCRF-CEM, 750 nM, average of two experiments, read-out: DNA synthesis, Percent of control
Description: (§6) Radiolabeled precursors of DNA [^3H]dThd, RNA ([^3H]Urd), or protein ([^3H]leucine) were added to each treatment 30 minutes after the addition of each compound. Samples were taken 1, 2, 3 and 4 hours after the addition of radiolabeled precursors, and the incorporation of radioactivity into RNA, DNA, or protein were determined as described (Parker et al, Biochem. Pharmacol. 55: 1673-1681, 1998). Each number represents the average of two experiments.

[9] = tested on: RNA synthesis in CEM cells; experiment: Effect on RNA synthesis ([3H]Urd incorporation) in CEM cells; type: cell-based; details: 750 nM, average of two experiments
Description: as §6

[10] = tested on: protein synthesis in CEM cells; experiment: Effect on protein synthesis ([3H]leucine incorporation) in CEM cells; type: cell-based; details: Homo sapiens, CCRF-CEM, 750 nM, average of two experiments, read-out: protein synthesis, Percent of control
Description: as §6

CEM cells (wild-type) [11] = experiment: Inhibition of CEM cell growth, wild-type; details: Homo sapiens, CCRF-CEM, read-out: IC50 (nM) Wild-type
Description: (§7) CEM cells were incubated with various concentrations of each compound and the effect on. cell numbers was determined using a Coulter Counter. The IC50 was determined from a plot of the percent of control growth versus drug concentration. The data presented are the mean and standard deviation from 3 separate experiments.

araC-resistant CEM cells [12] = experiment: Inhibition of CEM cell growth, araC-resistant
Description: as §7

Nc1ccn([C@@H]2S[C@H](CO)[C@@H](O)[C@@H]2O)c(=O)n1 [T-araC, 1-(4-Thio-β-D-arabinofuranosyl) cytosine]
IC50 (CAK1-1 Renal): 3 µM | IC50 (DLD-1 Colon): 7 µM | IC50 (LOX IMV1 Melanoma): 7 µM | IC50 (NC1-H23 Lung): 5 µM | IC50 (PC-3 Prostate): 8 µM | IC50 (SNB-7 (CNS)): 1 µM | IC50 (ZR-75-1 Mammary): 3 µM | IC50 (SK-MEL 28 Melanoma): 7 µM | Days Delay (T − C) (SC Colon 36 Tumor): >38.5 days | Days to 2 Doubling (SC Colon 36 Tumor): >49.0 days | Non-Specific Deaths/Total (SC Colon 36 Tumor): 0/5 | Tumor Free Surv/Total (SC Colon 36 Tumor): 4/5 | Tumor Regression Number of Complete (SC Colon 36 Tumor): 4 | Tumor Regression Number of Partial (SC Colon 36 Tumor): 0 | Days Delay (T − C) (SC CAKI-1 Renal Tumor; 8 Mg/Kg IP): 41.2 days | Days to 3 Doubling (SC CAKI-1 Renal Tumor; 8 Mg/Kg IP): 50.7 days | Non-Specific Deaths/Total (SC CAKI-1 Renal Tumor; 8 Mg/Kg IP): 0/6 | Tumor Free Surv/Total (SC CAKI-1 Renal Tumor; 8 Mg/Kg IP): 0/6 | Tumor Regression Duration Med (SC CAKI-1 Renal Tumor; 8 Mg/Kg IP): 12.7 days | Tumor Regression Duration Range (SC CAKI-1 Renal Tumor; 8 Mg/Kg IP): 9 to 18 days | Tumor Regression Number of Complete (SC CAKI-1 Renal Tumor; 8 Mg/Kg IP): 4 | Tumor Regression Number of Partial (SC CAKI-1 Renal Tumor; 8 Mg/Kg IP): 1 | Days Delay (T − C) (SC CAKI-1 Renal Tumor; 16 Mg/Kg IP): 50.3 days | Days to 3 Doubling (SC CAKI-1 Renal Tumor; 16 Mg/Kg IP): 59.8 days | Non-Specific Deaths/Total (SC CAKI-1 Renal Tumor; 16 Mg/Kg IP): 1/6 | Tumor Free Surv/Total (SC CAKI-1 Renal Tumor; 16 Mg/Kg IP): 0/6 | Tumor Regression Duration Med (SC CAKI-1 Renal Tumor; 16 Mg/Kg IP): 26.9 days | Tumor Regression Duration Range (SC CAKI-1 Renal Tumor; 16 Mg/Kg IP): 16 to 48 days | Tumor Regression Number of Complete (SC CAKI-1 Renal Tumor; 16 Mg/Kg IP): 5 | Tumor Regression Number of Partial (SC CAKI-1 Renal Tumor; 16 Mg/Kg IP): 0 | Days Delay (T − C) (SC HCT-116 Colon Tumor; 13.3 Mg/Kg IP): >43.1 days | Days to 2 Doubling (SC HCT-116 Colon Tumor; 13.3 Mg/Kg IP): >52.0 days | Non-Specific Deaths/Total (SC HCT-116 Colon Tumor; 13.3 Mg/Kg IP): 0/6 | Tumor Free Surv/Total (SC HCT-116 Colon Tumor; 13.3 Mg/Kg IP): 5/6 | Tumor Regression Duration Med (SC HCT-116 Colon Tumor; 13.3 Mg/Kg IP): 23.6 days | Tumor Regression Duration Range (Days) (SC HCT-116 Colon Tumor; 13.3 Mg/Kg IP): 24-24 Days | Tumor Regression Number of Complete (SC HCT-116 Colon Tumor; 13.3 Mg/Kg IP): 6 | Tumor Regression Number of Partial (SC HCT-116 Colon Tumor; 13.3 Mg/Kg IP): 0 | Days Delay (T − C) (SC HCT-116 Colon Tumor; 20 Mg/Kg IP): >43.1 days | Days to 2 Doubling (SC HCT-116 Colon Tumor; 20 Mg/Kg IP): >52.0 days | Non-Specific Deaths/Total (SC HCT-116 Colon Tumor; 20 Mg/Kg IP): 0/6 | Tumor Free Surv/Total (SC HCT-116 Colon Tumor; 20 Mg/Kg IP): 6/6 | Tumor Regression Number of Complete (SC HCT-116 Colon Tumor; 20 Mg/Kg IP): 6 | Tumor Regression Number of Partial (SC HCT-116 Colon Tumor; 20 Mg/Kg IP): 0 | DNA (CEM cells (wild-type) [1]): 0.0056 pmoles/10^6 cells | Total (CEM cells (wild-type) [1]): 0.2076 pmoles/10^6 cells | DNA (araC-resistant CEM cells [2]): 0.0025 pmoles/10^6 cells | DNA (percent of WT) (araC-resistant CEM cells [2]): 45% of WT | Total (araC-resistant CEM cells [2]): 0.0535 pmoles/10^6 cells | Total (percent of WT) (araC-resistant CEM cells [2]): 26% of WT | Phosphorylation, Wild-type [3]: 0.83 pmoles/mg protein/minute | Phosphorylation, araC-resistant CEM cells ([4]; araC-resistant CEM cell extract, 1 μm substrate): 0.011 pmoles/mg protein/minute | Percent of wild-type ([4]; phosphorylation in araC-resistant vs wild-type CEM extract): 1.3% of wild-type | Relative Vmax [5]: 0.46 | DNA (percent of total) (CEM cells [6]): 0.3% of total | Original Compound (percent of total) (CEM cells [6]): 96% of total | Percent Deamination (CEM cells [7]; F-dUrd 0 μM): 0% | Percent Deamination (CEM cells [7]; F-dUrd 10 μM): 0% | activity at 0.75 µM [8]: 16% | RNA synthesis, Percent of control [9]: 87% of control | activity at 0.75 µM [10]: 72% | IC50 (CEM cells (wild-type) [11]): 24 ± 9 nM | IC50 (araC-resistant CEM cells [12]; Homo sapiens, CCRF-CEM, read-out: IC50 (nM) araC-resistant): 125 ± 84 nM | Resistant/WT (araC-resistant CEM cells [12]; ratio of IC50 araC-resistant / wild-type CEM cells): 5
